# Results taken from PubChem BioAssay (NCI).
#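 Exposure lasted 48 hours, with cells grown in 96-well plates and compounds tested at five concentrations. TGI denotes the concentration required for complete inhibition of growth.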
# Columns and labels:
# Test in all cases: NCI tumour cell line growth inhibition, 48 h
# 786-0 renal = system: 786-0 renal
# A498 renal = system: A498 renal
# A549 NSCLC = system: A549 NSCLC
# ACHN renal = system: ACHN renal
# BT-549 breast = system: BT-549 breast
# CAKI-1 renal = system: CAKI-1 renal
# COLO 205 colon = system: COLO 205 colon
# DU-145 prostate = system: DU-145 prostate
# EKVX NSCLC = system: EKVX NSCLC
# HCC-2998 colon = system: HCC-2998 colon
# HCT-116 colon = system: HCT-116 colon
# HCT-15 colon = system: HCT-15 colon
# HOP-62 NSCLC = system: HOP-62 NSCLC
# HOP-92 NSCLC = system: HOP-92 NSCLC
# HS 578T breast = system: HS 578T breast
# HT29 colon = system: HT29 colon
# IGROV1 ovarian = system: IGROV1 ovarian
# K-562 leukemia = system: K-562 leukemia
# KM12 colon = system: KM12 colon
# M14 melanoma = system: M14 melanoma
# MALME-3M melanoma = system: MALME-3M melanoma
# MCF7 breast = system: MCF7 breast
# MDA-MB-231 breast = system: MDA-MB-231 breast
# MDA-MB-435 = system: MDA-MB-435
# MDA-N = system: MDA-N
# MOLT-4 leukemia = system: MOLT-4 leukemia
# NCI-H226 lung = system: NCI-H226 lung
# NCI-H23 lung = system: NCI-H23 lung
# NCI-H460 lung = system: NCI-H460 lung
# NCI-H522 lung = system: NCI-H522 lung
# NCI/ADR-RES ovarian = system: NCI/ADR-RES ovarian
# OVCAR-4 ovarian = system: OVCAR-4 ovarian
# OVCAR-5 ovarian = system: OVCAR-5 ovarian
# OVCAR-8 ovarian = system: OVCAR-8 ovarian
# PC-3 prostate = system: PC-3 prostate
# RPMI-8226 leukemia = system: RPMI-8226 leukemia
# RXF 393 renal = system: RXF 393 renal
# SF-268 CNS = system: SF-268 CNS
# SF-295 CNS = system: SF-295 CNS
# SF-539 CNS = system: SF-539 CNS
# SK-MEL-2 melanoma = system: SK-MEL-2 melanoma
# SK-MEL-28 melanoma = system: SK-MEL-28 melanoma
# SK-MEL-5 melanoma = system: SK-MEL-5 melanoma
# SK-OV-3 ovarian = system: SK-OV-3 ovarian
# SN12C renal = system: SN12C renal
# SNB-19 CNS = system: SNB-19 CNS
# SNB-75 CNS = system: SNB-75 CNS
# SW-620 colon = system: SW-620 colon
# T-47D breast = system: T-47D breast
# TK-10 renal = system: TK-10 renal
# U251 CNS = system: U251 CNS
# UACC-257 melanoma = system: UACC-257 melanoma
# UACC-62 melanoma = system: UACC-62 melanoma
# UO-31 renal = system: UO-31 renal
# CCRF-CEM leukemia = system: CCRF-CEM leukemia
# HL-60(TB) leukemia = system: HL-60(TB) leukemia
# LOX IMVI melanoma = system: LOX IMVI melanoma
# OVCAR-3 ovarian = system: OVCAR-3 ovarian
# SR leukemia = system: SR leukemia
compound,measurement,setting,value
N#Cc1c(C#N)c(SSc2c(C#N)c(C#N)c(N)n2-c2cccc3ccccc23)n(-c2cccc3ccccc23)c1N,TGI,786-0 renal,4.26 µM
same,TGI,A498 renal,> 63.6 µM
same,TGI,A549 NSCLC,43.7 µM
same,TGI,ACHN renal,13.1 µM
same,TGI,BT-549 breast,12.6 µM
same,TGI,CAKI-1 renal,29.5 µM
same,TGI,COLO 205 colon,10.6 µM
same,TGI,DU-145 prostate,47.6 µM
same,TGI,EKVX NSCLC,10.1 µM
same,TGI,HCC-2998 colon,85.8 µM
same,TGI,HCT-116 colon,14.1 µM
same,TGI,HCT-15 colon,4.01 µM
same,TGI,HOP-62 NSCLC,49.9 µM
same,TGI,HOP-92 NSCLC,13.6 µM
same,TGI,HS 578T breast,> 57.6 µM
same,TGI,HT29 colon,39.2 µM
same,TGI,IGROV1 ovarian,> 100 µM
same,TGI,K-562 leukemia,> 100 µM
same,TGI,KM12 colon,> 100 µM
same,TGI,M14 melanoma,8.4 µM
same,TGI,MALME-3M melanoma,3.4 µM
same,TGI,MCF7 breast,> 100 µM
same,TGI,MDA-MB-231 breast,40.8 µM
same,TGI,MDA-MB-435,36.5 µM
same,TGI,MDA-N,12.4 µM
same,TGI,MOLT-4 leukemia,> 100 µM
same,TGI,NCI-H226 lung,56.3 µM
same,TGI,NCI-H23 lung,> 63.2 µM
same,TGI,NCI-H460 lung,> 100 µM
same,TGI,NCI-H522 lung,3.15 µM
same,TGI,NCI/ADR-RES ovarian,> 76.8 µM
same,TGI,OVCAR-4 ovarian,41.9 µM
same,TGI,OVCAR-5 ovarian,49.9 µM
same,TGI,OVCAR-8 ovarian,> 25.3 µM
same,TGI,PC-3 prostate,35.5 µM
same,TGI,RPMI-8226 leukemia,> 100 µM
same,TGI,RXF 393 renal,17.4 µM
same,TGI,SF-268 CNS,33.2 µM
same,TGI,SF-295 CNS,38.9 µM
same,TGI,SF-539 CNS,35.7 µM
same,TGI,SK-MEL-2 melanoma,34.8 µM
same,TGI,SK-MEL-28 melanoma,> 100 µM
same,TGI,SK-MEL-5 melanoma,41.8 µM
same,TGI,SK-OV-3 ovarian,54.8 µM
same,TGI,SN12C renal,34.8 µM
same,TGI,SNB-19 CNS,46.4 µM
same,TGI,SNB-75 CNS,38.7 µM
same,TGI,SW-620 colon,> 100 µM
same,TGI,T-47D breast,5.47 µM
same,TGI,TK-10 renal,40.9 µM
same,TGI,U251 CNS,40 µM
same,TGI,UACC-257 melanoma,37.6 µM
same,TGI,UACC-62 melanoma,46.6 µM
same,TGI,UO-31 renal,6.02 µM
Cc1nn(CNc2ccc(F)c(Cl)c2)c(=S)n1/N=C/c1ccc(-c2ccc(Cl)cc2Cl)o1,TGI,786-0 renal,29 µM
same,TGI,A498 renal,30.3 µM
same,TGI,ACHN renal,30.7 µM
same,TGI,CAKI-1 renal,35.8 µM
same,TGI,CCRF-CEM leukemia,18.5 µM
same,TGI,DU-145 prostate,30.7 µM
same,TGI,EKVX NSCLC,42.6 µM
same,TGI,HCT-116 colon,30.7 µM
same,TGI,HCT-15 colon,41.6 µM
same,TGI,HL-60(TB) leukemia,16.9 µM
same,TGI,HOP-62 NSCLC,35.9 µM
same,TGI,HS 578T breast,52.9 µM
same,TGI,HT29 colon,41.4 µM
same,TGI,IGROV1 ovarian,34.6 µM
same,TGI,K-562 leukemia,15.5 µM
same,TGI,KM12 colon,55.7 µM
same,TGI,LOX IMVI melanoma,44.9 µM
same,TGI,M14 melanoma,36.9 µM
same,TGI,MCF7 breast,37.3 µM
same,TGI,MDA-MB-231 breast,34.9 µM
same,TGI,MDA-MB-435,39 µM
same,TGI,MDA-N,33.5 µM
same,TGI,MOLT-4 leukemia,6.59 µM
same,TGI,NCI-H226 lung,46.8 µM
same,TGI,NCI-H23 lung,38.8 µM
same,TGI,NCI-H460 lung,33.7 µM
same,TGI,NCI-H522 lung,29.7 µM
same,TGI,NCI/ADR-RES ovarian,44.5 µM
same,TGI,OVCAR-3 ovarian,33.1 µM
same,TGI,OVCAR-4 ovarian,50 µM
same,TGI,OVCAR-5 ovarian,41.2 µM
same,TGI,OVCAR-8 ovarian,48.5 µM
same,TGI,PC-3 prostate,30.9 µM
same,TGI,RPMI-8226 leukemia,29.7 µM
same,TGI,RXF 393 renal,34.3 µM
same,TGI,SF-268 CNS,34.6 µM
same,TGI,SF-295 CNS,33.7 µM
same,TGI,SF-539 CNS,34.8 µM
same,TGI,SK-MEL-2 melanoma,41.3 µM
same,TGI,SK-MEL-28 melanoma,44.3 µM
same,TGI,SK-MEL-5 melanoma,35.1 µM
same,TGI,SK-OV-3 ovarian,33.2 µM
same,TGI,SR leukemia,14.7 µM
same,TGI,SW-620 colon,29.2 µM
same,TGI,T-47D breast,58.8 µM
same,TGI,TK-10 renal,28.9 µM
same,TGI,U251 CNS,29 µM
same,TGI,UACC-257 melanoma,46.9 µM
same,TGI,UO-31 renal,32.2 µM
